According to patent US20060282913A1, “Method of efficiently growing modified morning glory plant” (SKILL/VISION CO., LTD., priority 2003, published 2006):

Each compound was assayed on immature embryos of modified morning glory "aosakaikaryuubaseisaisakibotan" (assay: Embryoid body induction from cultured immature embryos with different phytohormones). Conditions: immature embryos cultured as in Example 1A (MS medium, 60 g/l sucrose, 25° C., 2000 lux; NAA 3 mg/l), phytohormone varied.
Type: cell-based, Ipomoea nil
Procedure: Immature embryos were obtained from a parent tree of modified morning glory “aosakaikaryuubaseisaisakibotan”. Each individual immature embryo was separately cultured on an MS medium containing 3 mg/l of NAA and 60 g/l of sucrose at 25° C. under 2000 lux, to thereby obtain an embryoid body from the immature embryo. Each embryoid body obtained from different immature embryo was separately cultured as a discrete strain. Subculturing was repeated using the same medium at an interval of 4 weeks.
In substantially the same manner as in Example 1A, immature embryos were cultured except that phytohormone other than NAA, such as 4-fluorophenoxyacetic acid, 2,4-dichlorophenoxyacetic acid and picloram were used. As is apparent from a result shown in Table 4, in the case of phytohormone other than NAA, no embryoid bodies were produced, and thus mass proliferation was not attained.

Structure (SMILES) | Number of embryoid bodies formed per immature embryo
O=C(O)COc1ccc(Cl)cc1Cl [2,4-dichlorophenoxyacetic acid] | 0
O=C(O)COc1ccc(F)cc1 [4-fluorophenoxyacetic acid] | 0
O=C(O)Cc1cccc2ccccc12 [NAA] | 10
Nc1c(Cl)c(Cl)nc(C(=O)O)c1Cl [Picloram, picloram] | 0
